In patent US20260199365A1, “BIS-SULFONAMIDE SHIP1 ACTIVATORS” (The Research Foundation for the State University of New York, priority 2022, published 2026):

Test system: IL-6 production in BV-2 cells
Assay: ELISA quantitation of IL-6 production in BV-2 cells after stimulation with LPS
Format: cell-based, murine
Settings: 1 h pretreatment with SHIP1 activator 10 μM, then LPS
Protocol: FIG. 3 presents an ELISA quantitation of IL-6 production in BV-2 cells after stimulation with LPS. BV-2 cells were plated and treated for 1 h with vehicle (Veh, 0.25% DMSO) or SHIP1 activator (10 μM in Veh) prior to addition of LPS (100 ng/ml). Unstimulated BV2 cells treated with Veh are shown as an additional control to assess LPS induction of IL-6. (A) Evaluation of 1, 26, 29 and 53. (B) In a separate experiment, 70, and 71 were evaluated under similar conditions. Bars indicate Mean G SEM; statistical tests: two-way ANOVA with Tukey correction, **** p<0.0001, ** p<0.01.
Given this experience, some of the new activators were evaluated in a cell-based setting. Using the immortalized BV-2 cell line, which is derived from murine microglia and retains many microglial morphological and functional characteristics of microglia, an assay for the anti-inflammatory effects of these activators was developed. This assay involved treatment of the cells with lipopolysaccharides (LPS) to induce IL-6 production which can then be quantified with an ELISA.
Cell culture: The BV2 cell line was obtained from the ATCC (American Type Culture Collection). The ATCC and performs genetic validation on deposited cell lines. For the inflammatory cytokines production studies, BV2 cells were cultured in DMEM/F12 (Corning) 10% HI FBS at 37° C. and 5% CO2 in a humidified incubator and split 1:6 every 3 days with Cellstripper™ (Corning). Cells were kept at 37° C. and 5% CO2 in a humidified incubator.
ELISA measurements: Parental (scrambled guide control) BV2 cells were seeded at 5×10^5/mL, […] in 48 well plate. Cell were treated with […] small molecule or vehicle control (0.5% DMSO) and incubated for 1 h before addition of stimuli. LPS (10 ng/ml, E. coli O111: B4, Sigma) was added to the cells and incubated for 6 h to detect IL-6 production. Supernatants were spun down at 400×g for 5 minutes to remove cell debris and froze at −20° C. for ELISAs. IL-6 levels were quantified from cellular supernatants with ELISA MAX™ Standard Set Mouse IL-6 kit (Biolegend), following manufacturer's recommendations. We detected absorbance at 450 nm and removed 570 nm background absorbance, with a plate reader (Synergy 2, BioTek). All experiments were repeated three times and each value was reported as mean±SEM from biological replicates in the same assay. All statistical analysis were performed using GraphPad Prism (version 9.2). Two-way ANOVA was used to analyze all data with two independent variables as time and treatment or concentration and treatment, data is reported as Mean+/−SEM.

## Cc1sc(S(=O)(=O)N2CCSCC2)cc1NC(=O)CNS(=O)(=O)c1ccc(F)cc1 [Compound K306, 2-(4-Fluorobenzenesulfonamido)-N-[2-methyl-5-(thiomorpholine-4-sulfonyl)thiophen-3-yl]acetamide]
  IL-6 production induced by LPS: significantly diminished
